“And” between values parts separate entries of the source, which are not always exact repeats. Equal values may be shown once.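 Method: 48-hour compound exposure of cells in 96-well plates, five concentrations, linear interpolation of endpoints. At the GI50, growth is halved.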 The source made the active and inactive calls. Rule as the data show it: active = GI50 up to about 1.1 µM and inactive = higher. Non-standard residues stand in square brackets, D forms with d. Residues, ends and D or L forms follow the SMILES beside them. *: point of attachment. X30 = COC1=CC(=O)N(C(=O)[C@@H](O*)C(C)C)[C@H]1Cc1ccccc1; NMeL = CN[C@@H](CC(C)C)C(=O)O; Cbz = O=C(OCc1ccccc1)*
How the values were obtained:
Assay in all cases: NCI anticancer screen, dose series, 48 h
[1] = tested on: MDA-MB-435
[2] = tested on: SK-MEL-5
[3] = tested on: MOLT-4
[4] = tested on: UO-31
[5] = tested on: A549
[6] = tested on: RPMI-8226
[7] = tested on: OVCAR-3
[8] = tested on: SF-295
[9] = tested on: A498
[10] = tested on: MDA-MB-231
[11] = tested on: HCT-15
[12] = tested on: NCI-H226
[13] = tested on: M14
[14] = tested on: SK-MEL-28
[15] = tested on: EKVX
[16] = tested on: TK-10
[17] = tested on: NCI-H23
[18] = tested on: Hs-578T
[19] = tested on: OVCAR-8
[20] = tested on: CAKI-1

Row | Compound | GI50 [1] | GI50 [2] | GI50 [3] | GI50 [4] | GI50 [5] | GI50 [6] | GI50 [7] | GI50 [8] | GI50 [9] | GI50 [10] | GI50 [11] | GI50 [12] | GI50 [13] | GI50 [14] | GI50 [15] | GI50 [16] | GI50 [17] | GI50 [18] | GI50 [19] | GI50 [20]
1 | CCOC(=O)Cc1[nH]c(C(=O)c2ccccc2)cc1C(=O)c1ccccc1 | 13.8 µM (inactive) | 41.8 µM (inactive) | 14.8 µM (inactive) | > 10 µM (inactive) | 25.4 µM (inactive) | > 10 µM (inactive) | 46.3 µM (inactive) | > 10 µM (inactive) | 36.8 µM (inactive) | > 10 µM (inactive) | 68.7 µM | 23.3 µM (inactive) | 88.1 µM (inactive) | > 10 µM (inactive) | > 100 µM (inactive) | 36 µM (inactive) | 17.4 µM (inactive) | > 100 µM (inactive) | > 10 µM (inactive) | 
2 | COc1ccccc1/N=N/c1c(O)ccc2ccccc12 | 74 µM (inactive) and 78.2 µM (inactive) | 22.8 µM (inactive) and 20.7 µM (inactive) | 64.3 µM (inactive) | 17.9 µM (inactive) and > 10 µM (inactive) | 32.7 µM (inactive) and 23 µM (inactive) |  | 31.4 µM (inactive) and 32.1 µM (inactive) | 20 µM (inactive) and 28.5 µM (inactive) | 32.1 µM (inactive) and 23.5 µM (inactive) | 30.2 µM (inactive) and 28.5 µM (inactive) | > 63.2 µM |  |  | 85.3 µM (inactive) |  | 14.6 µM (inactive) and 23.4 µM (inactive) | 21.7 µM (inactive) and 31.4 µM (inactive) | 28.7 µM (inactive) and 26.6 µM (inactive) | 25.8 µM (inactive) and 30.3 µM (inactive) | 18.7 µM (inactive) and 25.6 µM (inactive)
3 | COc1cccc(/C=N/n2c(Cc3ccccc3)n[nH]c2=O)c1 | > 100 µM (inactive) | 33.9 µM (inactive) | > 100 µM (inactive) | > 100 µM (inactive) | > 100 µM (inactive) | > 100 µM (inactive) | > 100 µM (inactive) | 38.5 µM (inactive) | > 100 µM (inactive) | > 100 µM (inactive) | > 100 µM |  | > 100 µM (inactive) | > 100 µM (inactive) | > 72.6 µM (inactive) | > 100 µM (inactive) | > 100 µM (inactive) | 26.7 µM (inactive) | 69 µM (inactive) | > 47.4 µM (inactive)
4 | O=c1[nH]nc(-c2ccccc2)n1/N=C/c1cccs1 | 28.2 µM (inactive) |  | 31.6 µM (inactive) | 58.3 µM (inactive) | 52.4 µM (inactive) | 27.1 µM (inactive) | > 100 µM (inactive) | 72.3 µM (inactive) | 54.2 µM (inactive) | > 100 µM (inactive) | 44.3 µM | 59.4 µM (inactive) | > 100 µM (inactive) | 86.9 µM (inactive) | 83.6 µM (inactive) |  | 36.6 µM (inactive) | 56 µM (inactive) | 37.4 µM (inactive) | > 100 µM (inactive)
5 | Cc1cc(S(=O)(=O)Nc2nc3cccnc3[nH]2)c(S)cc1Cl | > 100 µM (inactive) | 71.9 µM (inactive) | > 100 µM (inactive) |  | 75 µM (inactive) | > 100 µM (inactive) | > 100 µM (inactive) | 58.1 µM (inactive) | > 100 µM (inactive) | 45.3 µM (inactive) | 91 µM | 52.2 µM (inactive) | > 100 µM (inactive) | > 100 µM (inactive) | > 100 µM (inactive) | > 100 µM (inactive) | 97.5 µM (inactive) | 74 µM (inactive) | > 100 µM (inactive) | > 100 µM (inactive)
6 | CCOc1cc(C2CC(c3ccc(NS(=O)(=O)c4cc([N+](=O)[O-])ccc4C)cc3)=NN2)ccc1O (configuration not stated) | 28.1 µM (inactive) | 19.2 µM (inactive) | 17.5 µM (inactive) | 27.8 µM (inactive) | 29 µM (inactive) | 24.6 µM (inactive) | 15.3 µM (inactive) |  | 22.3 µM (inactive) | 25.5 µM (inactive) | 20.5 µM | 43 µM (inactive) | 19 µM (inactive) | 32.4 µM (inactive) | 21.4 µM (inactive) |  | 28 µM (inactive) | 65 µM (inactive) | 44.5 µM (inactive) | 29.3 µM (inactive)
7 | COC1=CC(=O)N(C(=O)[C@@H](OC(=O)[C@@H]2CCCN2C(=O)[C@@H]2CCCN2C(=O)[C@H](CC(C)C)N(C)C(=O)[C@@H](NC(=O)[C@@H](NC(=O)OCc2ccccc2)C(C)C)C(C)C)C(C)C)[C@H]1Cc1ccccc1 (Cbz-VV[NMeL]PP-X30) | > 100 µM (inactive) |  |  | > 100 µM (inactive) | 76.7 µM (inactive) | 17.6 µM (inactive) | 47.1 µM (inactive) | 20.3 µM (inactive) | 19.6 µM (inactive) | 15 µM (inactive) | > 100 µM | > 100 µM (inactive) | 70.1 µM (inactive) | > 100 µM (inactive) | > 100 µM (inactive) | 64.7 µM (inactive) | > 100 µM (inactive) | > 100 µM (inactive) | > 100 µM (inactive) | > 100 µM (inactive)
